The values that follow come from article PMC4151877 (Science (New York, N.Y.), 2014).

The target of experiment [1] is T1, NaAtm1 (Novosphingobium aromaticivorans, UniProt Q2G506).
T1 sequence (Q2G506 1-608): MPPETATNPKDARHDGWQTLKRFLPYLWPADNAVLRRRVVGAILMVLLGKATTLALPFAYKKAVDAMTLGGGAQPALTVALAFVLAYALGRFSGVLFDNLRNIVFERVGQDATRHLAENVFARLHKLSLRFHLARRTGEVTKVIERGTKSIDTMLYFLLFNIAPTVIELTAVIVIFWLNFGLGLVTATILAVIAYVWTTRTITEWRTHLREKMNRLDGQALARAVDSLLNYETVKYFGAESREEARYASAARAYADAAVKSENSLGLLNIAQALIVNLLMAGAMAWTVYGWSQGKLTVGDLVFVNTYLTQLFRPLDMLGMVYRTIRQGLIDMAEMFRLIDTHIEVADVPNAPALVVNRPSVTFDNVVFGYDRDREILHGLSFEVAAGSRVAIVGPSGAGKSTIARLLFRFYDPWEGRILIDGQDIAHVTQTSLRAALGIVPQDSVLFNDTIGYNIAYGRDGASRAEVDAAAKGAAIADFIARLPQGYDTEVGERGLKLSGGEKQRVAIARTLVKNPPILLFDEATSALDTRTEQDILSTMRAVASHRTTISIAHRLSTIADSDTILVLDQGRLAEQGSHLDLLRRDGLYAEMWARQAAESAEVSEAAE
In words: ligand-stimulated ATPase activity. Format: biochemical. The following applies: ATP hydrolysis.

The target of experiment [2] is T1, NaAtm1. Kind of experiment: ligand-stimulated ATPase activity, Michaelis-Menten type analysis. The experiment is classed as biochemical. Conditions: ATP hydrolysis; stimulating ligand varied.

`CSCC[C@H](N)C(=O)O` [Met]: on NaAtm1 [1], the ATPase stimulation entry is “free amino acids Gly and Met to stimulate ATPase activity as effectively as GSH”.
For `N[C@@H](CCC(=O)N[C@@H](CS)C(=O)O)C(=O)O` [γ-Glu-Cys], the Km entry on NaAtm1 [2] was “γ-peptides GSH, γ-Glu-Cys, and ophthalmic acid”.
For `N[C@@H](CS)C(=O)NCC(=O)O` [Cys-Gly], the ATPase stimulation entry at NaAtm1 [1] was “exhibit stronger ATPase activities relative to Cys-Gly and mono-carboxylic acids”.
